Data taken from article PMC6324813, “Biological evaluation of isoflavonoids from Genista halacsyi using estrogen-target cells: Activities of glucosides compared to aglycones” (PLoS ONE, 2019).

Columns and labels:
TNFα mRNA [1] = experiment: LPS-induced TNFα mRNA expression in RAW 264.7 cells (RT-qPCR); assay type: cell-based, mouse
Description: To assess TNFα mRNA expression, RAW 264.7 cells were plated in 6-well plates in alpha-MEM medium supplemented with 10% DCC-FBS, at a density of 300,000 cells per well, maintained in culture for 72 h and then exposed to vehicle (0.3% DMSO) or 3 μΜ test compound for 20 min or 24 h prior to stimulation with 100 ng/ml lipopolysaccharide (Sigma L4391) for 1 h. Extraction of total RNA, reverse transcription (RT) and quantitative PCR (qPCR) analysis of mRNA expression levels were performed as previously described. Relative gene expression levels were calculated by the comparative Ct method using the formula 2^(-ΔCt). Tumor necrosis factor alpha (TNFα) mRNA levels were normalized to the respective levels of […] (GAPDH). Test compound effects on the relative number of viable cells were assessed using crystal violet and a Safire II microplate reader (Tecan) as previously described. […] The following primers were used: […]

RAW 264.7 cells [2] = experiment: Differentiation of RAW 264.7 cells to osteoclasts, TRAP activity; assay type: cell-based, mouse; details: RANKL 50 ng/ml + E2 1 nM or compound 1 μM; 3 days; DF plus vehicle = 100
Description: Clones of RAW 264.7 cells competent to differentiate to multinuclear osteoclasts upon activation with RANKL provide valuable information on the regulation of osteoclast differentiation. Differentiation-competent RAW cells (ATCC TIB-71) were seeded in 96-well plates at a density of 9,600 cells per well. The cells were plated in the presence of test compounds or compound diluent (0.1% DMSO) and, 4 h after plating, were exposed for 3 days to 50 ng/ml RANKL or to plain medium. Osteoclastic differentiation was assessed via induction of Tartrate-Resistant Acid Phosphatase (TRAP) activity. The cells were washed with PBS and incubated with 25μl lysis buffer (0.4 M NaCl, 25 mM Hepes pH 7.7, 1.5 mM MgCl2, 0.2 mM EDTA, 1% NP40) for 5 min on ice.

MCF-7 cells = experiment: MCF-7 cell proliferation (MTT); assay type: cell-based, human; details: for activation at 1 µM: Homo sapiens, MCF7, 72 h, read-out: Induction of cell proliferation (MCF-7 cells) Agonism at 1μΜ (% of 0.1nM E2)
Description: Test compound effects on the proliferation of MCF-7 and MDA-MB-231 cells were assessed as previously described.

TNFα mRNA [3] = details: cited from earlier work
HT22 cells [4] = details: cited from earlier work; for prevention of oxytosis of glutamate-challenged HT22 cells: 1 μM estradiol or 2.5 μM genistein
Ishikawa cells = experiment: Induction of AlkP expression in Ishikawa cells; assay type: cell-based, human; details: for EC (25% of 0.1 nM E2 effect) / activation at 1 µM: 72 h; for EC (25% of 0.1 nM E2 effect): concentration required to achieve 25% of the effect of 0.1 nM E2, read-out: Induction of Alkaline Phosphatase Expression (Ishikawa cells) EC25E2; for activation at 1 µM: read-out: Induction of AlkP expression (Ishikawa cells) Agonism at 1μΜ (% of 0.1nM E2)
Description: Induction of AlkP expression of Ishikawa cells is considered as a reliable in vitro measure of estrogenic activity. Assessment of AlkP expression in Ishikawa cells was carried as already described. Briefly, the cells were plated in 96-well plates at a density of 12,000 cells per well in phenol-red-free MEM supplemented with 1 μg/mL insulin and 5% DCC-FBS. […] Data on the dependence of AlkP activity on isoflavonoid concentration were curve fitted using SigmaPlot10 (SPSS Inc) and the numerical data of curve fitting were used to determine AUC as described above, using for the calculation of AUC of a particular AlkP response the very same concentration used for the respective luciferase response. The AUC of AlkP responses of the isoflavonoids of a group were expressed as % of the AUC of the luciferase response of the respective archetypal isoflavone.

HT22 cells [5] = experiment: Glutamate toxicity (oxytosis) of HT22 neuronal cells (MTT); details: for viability of HT22 cells under normal growth conditions compared to vehicle-treated cells: no glutamate
Description: Glutamate-challenged HT22 cells suffer oxidative stress-induced cell death (oxytosis) within 24 h due to glutathione depletion and consequent massive accumulation of ROS [42]. The efficacy of test compounds to prevent oxytosis of HT22 cells was assessed as already described. Briefly, HT22 cells were plated in 96-well flat bottom plates at a density of 4,000 cells per well in 100 μl of DMEM (low glucose) containing 2% FBS. 24 h after plating, the cells were treated with test compounds or compound diluent (0.1% DMSO) and then challenged with 5 mM glutamate for 24 h. […] Non-challenged cells served to assess test compound effects on cell viability, whereas challenged cells served to assess the neuroprotective activity of test compounds.

RAW 264.7 cells [6] = details: cited from earlier work
MDA-MB-231 cells = experiment: MDA-MB-231 cell proliferation (MTT); assay type: cell-based; details: 0.1 nM estradiol, 1 μM ICI182,780, isoflavonoids 1 μM
Description: Test compound effects on the proliferation of MCF-7 and MDA-MB-231 cells were assessed as previously described. […] Relative numbers of cells exposed to estradiol or to ICI182,780 acted as positive and negative control, respectively.

MC3T3-E1 cells [7] = experiment: Mineralization of MC3T3-E1 cells, Alizarin red staining; assay type: cell-based, mouse; details: DF + E2 1 nM or compound 1 μM; 21 days; DF plus vehicle = 100
Description: (§1) Differentiation of MC3T3-E1 cells to osteoblasts has been extensively used to screen for compounds that may promote bone formation. Differentiation of MC3T3-E1 cells was carried out in 96-well plates using 3,300 cells per well and was assessed via induction of, i) Alkaline Phosphatase (AlkP) activity after 6 days of treatment and, ii) mineralization of extracellular matrix after 21 days of treatment. Briefly, 24 h after plating, the cells were incubated with test compounds or vehicle i.e. the compound diluent (0.1% DMSO) and then exposed for 6 days to differentiation medium in presence or absence of differentiation factors (cf. Cell culture) with a change to fresh compounds and medium in 3 days. AlkP activity was assessed at 405 nm in a Safire II microplate reader using as substrate p-nitrophenyl-phosphate (pNPP, Sigma-Aldrich) as already described. Mineralization of MC3T3 cells was assessed by staining with Alizarin red (Fluka). Cells were cultured and treated as described above for 21 days, with media and test compounds changed every 3 days, and calcium phosphate deposition was assayed as described by Gregory et al.. Briefly, the cells were washed twice with PBS and fixed with 70% ethanol for 15 min on ice. The cells were stained with Alizarin red solution (40 mM, pH 4.2) for 30 min at room temperature, washed twice with distilled water and once with PBS. The dye from the stained mineral deposits was extracted with 33% acetic acid and the absorbance was measured at 405 nm using a Safire II microplate reader (Tecan).

MC3T3-E1 cells [8] = experiment: Differentiation of MC3T3-E1 cells to osteoblasts, AlkP activity; assay type: cell-based, mouse; details: DF + E2 1 nM or compound 1 μM; 6 days; DF plus vehicle = 100
Description: as §1, with “Differentiation” for “Differentiation of MC3T3-E1 cells to osteoblasts has been extensively used to screen for compounds that may promote bone formation. Differentiation”

ERβ = ERβ (Homo sapiens, UniProt Q92731); experiment: ERE-dependent luciferase gene transcription in HEK:ERβ cells; assay type: cell-based; set-up: expressed in transfected cells; host or cells: HEK-293 (HEK:ERβ clone, with pERE-tk-Luciferase); details: compounds 1 μM, estradiol 0.1 nM; 18 h
ERβ, sequence (Q92731 whole entry): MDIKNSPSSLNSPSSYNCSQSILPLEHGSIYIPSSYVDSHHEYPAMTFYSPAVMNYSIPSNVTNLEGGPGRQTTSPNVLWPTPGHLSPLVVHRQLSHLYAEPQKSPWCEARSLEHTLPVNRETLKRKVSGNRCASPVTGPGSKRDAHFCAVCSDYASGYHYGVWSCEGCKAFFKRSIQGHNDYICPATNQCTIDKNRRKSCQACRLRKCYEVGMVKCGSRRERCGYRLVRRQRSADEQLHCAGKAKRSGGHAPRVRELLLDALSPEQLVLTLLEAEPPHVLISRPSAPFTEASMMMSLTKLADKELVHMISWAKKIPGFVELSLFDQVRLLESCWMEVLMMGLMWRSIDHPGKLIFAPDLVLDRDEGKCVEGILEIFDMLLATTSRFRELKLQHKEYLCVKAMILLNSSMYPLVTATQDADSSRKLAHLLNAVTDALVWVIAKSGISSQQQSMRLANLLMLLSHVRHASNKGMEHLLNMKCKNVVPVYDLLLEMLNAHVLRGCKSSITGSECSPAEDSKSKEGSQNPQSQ
Description: Assessment of ER/ERE-dependent luciferase gene transcription in MCF-7:D5L (express ERα) and HEK:ERβ cells (express ERβ) and determination of ER transcriptional agonism was carried as already described. Briefly, the cells were plated in 96-well plates at a density of 12,000 cells per well in phenol-red-free MEM (MCF-7:D5L cells) or phenol-red-free DMEM (HEK:ERβ cells) supplemented with 1 μg/mL insulin and 5% DCC-FBS. […] The AUC of the isoflavonoids of each group were then expressed as % of the AUC of the respective archetypal isoflavone. Since AUC data combine the efficacy as well as the potency of cell response into a single parameter, the %AUC data were considered here as a more reliable measure of relative ER/ERE-dependent luciferase expression of the test compounds.

[9] = 1 nM estradiol or 1 μM compound

Structure (SMILES) | Differentiation of RAW 267.4 cells, TRAP expression (%) (RAW 264.7 cells [2]) | activation at 1 µM (MCF-7 cells) | prevention of oxytosis of glutamate-challenged HT22 cells (HT22 cells [4]) | EC (25% of 0.1 nM E2 effect) (Ishikawa cells; Homo sapiens, Ishikawa) | activation at 1 µM (Ishikawa cells; Homo sapiens, Ishikawa) | viability of HT22 cells under normal growth conditions compared to vehicle-treated cells (HT22 cells [5]; [9]) | concentrations that inhibit osteoclastic differentiation of RAW 264.7 cells (RAW 264.7 cells [6]) | also measured
O=c1c(-c2ccc(O)cc2)coc2cc(O)cc(O)c12 [Compound 3, genistein] | 106±11% | 79 ± 6% | unable to prevent oxytosis | 0.03 ± 0.01 µM | 110 ± 11% | not different | ≥ 10 µM | reduction of LPS induction of TNFα mRNA expression (TNFα mRNA [1]; 3 μM, pre-treatment 24 h, LPS 100 ng/ml 1 h): 15%; suppression of LPS-stimulated TNFα mRNA expression (TNFα mRNA [1]; pre-incubated with 3 μM isoflavonoid prior to the stimulation): ineffective; inhibition of TNFα gene transcription in RAW 264.7 cells (TNFα mRNA [3]; pre-incubation with low micromolar concentrations): 30–40%; EC50 (Ishikawa cells; Homo sapiens, Ishikawa, read-out: Induction of Alkaline Phosphatase Expression (Ishikawa cells) EC50E2): 50 ± 20 nM; viability of glutamate-treated HT22 cells (% of glutamate-free cells) (HT22 cells [5]; 5 mM glutamate 24 h, 1 nM estradiol or 1 μM compound): ≤ 40%
C[C@]12CC[C@@H]3c4ccc(O)cc4CC[C@H]3[C@@H]1CC[C@@H]2O [Estradiol, 17β-estradiol, reference compound] | 105±3% | 100 ± 19% | unable to prevent oxytosis | 9.83 ± 0.44 µM | 100 ± 9% | not different | ≥ 10 µM | induction of proliferation of MCF-7 cells (MCF-7 cells; 0.1 nM estradiol, vs vehicle): 1.80 fold; proliferation of MDA-MB-231 cells (MDA-MB-231 cells): not affected; suppression of TNFα mRNA expression and cytokine release after LPS (TNFα mRNA [3]; estrogen-free RAW 264.7 cells): unable to suppress; IC50 (HT22 cells [4]; read-out: IC50, ER-dependent protection of glutamate-challenged HT22 cells from oxytosis): > 800 nM; Differentiation of MC3T3-E1 cells, Alizarin red staining (%) (MC3T3-E1 cells [7]): 134±7 %; induction of AlkP expression (Ishikawa cells; 0.1 nM estradiol, vs vehicle): 3.68 fold; Differentiation of MC3T3-E1 cells, AlkP expression (%) (MC3T3-E1 cells [8]): 118±2 %; viability at 0.001 µM (HT22 cells [5]; Mus musculus, HT-22, 24 h, read-out: viability of glutamate-treated HT22 cells (% of glutamate-free cells)): ≤ 40%; Induction of luciferase gene transcription through ERβ, HEK:ERβ cells, Agonism at 1μΜ (% of 0.1nM E2) (ERβ): 100 ± 12 % of 0.1nM E2
